These results are taken from patent publication US9598441B2, “Therapeutic compounds and methods” (Wayne State University, priority 2011, dated 2017).

One assay concerns cell cycle progression. Put plainly: Flow-cytometric cell cycle analysis (propidium iodide). It counts as cell-based. Here is the method: FIGS. 5A-5D: CFM-4 suppresses cell growth in part by elevating CARP-1 and diminishing cyclin B1 levels. In panel A, cells were treated with indicated agents for noted times, labeled with propidium iodide, and sorted by flow cytometry. Histogram and table below represent cell numbers in various phases of cell cycle. In panel B, cells were treated with indicated dose of CFM-4 for noted times, in panel C, cells were either untreated (−) or treated (+) with CFM-4 for noted dose and time, while in panel D, cells were either treated with vehicle control (DMSO) or with indicated agents for noted dose and time. The cell lysates (50 μg/lane) in panels B-D were analyzed by WB for levels of CARP-1, Cyclin B1, Cdh1, APC-2, CDKIs p21^WAF1/CIP1, p27^KIP1 and actin proteins as in methods.
CARP-1 is required for CFM-4-dependent cell growth inhibition. Because APC/C E3 ubiquitin ligase functions to regulate cell cycle and CFM-4 binds with CARP-1 to inhibit its binding with APC-2, it was next determined whether the SMIs interfere with cell cycle progression. […] The APC/C^Cdc20 E3 ubiquitin ligase regulates turnover of the mitotic cyclin B1 and Cdc20 during the G2M phase and exit to mitosis while APC/C^Cdh1 E3 ligase targets Cdc20 as well as SCF ligase to accomplish exit from mitosis and transition to G0/G1 phases. Attenuation of SCF ligase by APC/C^Cdh1, in turn, results in elevated levels of CDKIs p21^WAF1/CIP1 and p27^KIP1. […] To investigate this possibility it was determined whether CFM-4 binding with CARP-1 modulated CARP-1 levels. […] Levels of both the p21^WAF1/CIP1 and p27^KIP1 CDKIs were elevated when cells were exposed to CFM-4 for 0.5-1.0 h time periods (FIG. 5B). This may likely be due to the initial response of the cells to stress following exposure to CFM-4. […] This loss of CDKI expression could be due to attenuation of APC/C^Cdh1 activity following modest reduction in the Cdh1 levels as well as inability of CARP-1 to bind with APC-2 over prolonged periods of treatments with CFM-4. […]

For a further assay, the system named is apoptosis of HBC cells. Put plainly: ELISA-based DNA fragmentation apoptosis assay. The assay is classed as cell-based, human. Here is the method:
For apoptosis ELISA assay, 4−5×10^2 cells were seeded in 96-well plates and treated essentially as indicated in the MTT assay above. Untreated as well as treated cells were lysed, and levels of mono and oligo-nucleosomal DNA fragments in the lysates were determined by measuring optical density of each sample at 405 nm and 495 nm wavelengths. […] For TUNEL labeling, the cells were treated with various agents, fixed, labeled and photographed essentially as detailed in immuno-localization protocols described before (Zhang, L., Levi, E., Majumder, P., Yu, Y., Aboukameel, A., Du, J., Xu, H., Mohammad, R. M., Hatfield, J. S., Wali, A., Adsay, V., Majumdar, A. P. N., and Rishi, A. K. (2007) Mol. Cancer. Ther. 6(5), 1661-1672). […] Cell lysates derived from vehicle DMSO (Control) or CFM-4-treated cells were added to the wells that had immobilized fluorogenic caspase-3, caspase-8, caspase-9, or caspase-2 substrates. The fluorescence released from the activated caspase-dependent cleavage of respective substrate was detected by a plate reader at the excitation and emission wavelengths of 380 nm and 460 nm, respectively.
CFM-4 suppresses cell growth in part by inducing apoptosis: In light of the data in FIG. 5A showing significant accumulation of CFM-4-treated cells in the sub G0 phase, and the fact that cells undergoing apoptosis often accumulate in the sub G0 fractions, it was next ascertained the extent of apoptosis stimulation by these agents by utilizing an ELISA-based DNA fragmentation assay. […] The intrinsic, mitochondria-mediated and the extrinsic, extracellular receptor-activated, apoptosis signaling pathways are transduced by activation of various caspases that promote eventual breakdown of cellular proteins, organelles and plasma membrane. […] It was next determined whether apoptosis stimulation by CFM-4 involved activation of caspases 8 or 9 or both. […] The activation of caspases in the presence of CFM-4 was further profiled by utilizing a fluorescence-based quantitative assay as detailed in methods. […]
Background: In an ELISA, binding on a coated surface is turned into a signal by an enzyme label.

On to `COc1cccc2c1C(=O)c1c(O)c3c(c(O)c1C2=O)C[C@@](O)(C(=O)CO)C[C@@H]3O[C@H]1C[C@H](N)[C@H](O)[C@H](C)O1` [ADR, adriamycin, reference compound], for which the “cell cycle effect (flow cytometry)” value in the assay on cell cycle progression is “induced G2M cell cycle arrest”. In addition, the “apoptosis level (DNA fragmentation ELISA)” value in the assay on apoptosis of HBC cells is given as “significantly elevated levels of apoptosis”.
On the same counts, the results for `Cc1cc(Br)cc2c1NC(=O)/C2=C1\SC(=S)NC1=O` [CFM-1, (Z)-5-(5-bromo-7-methyl-2-oxoindolin-3-ylidene)-2-thioxothiazolidin-4-one] are “induced G2M cell cycle arrest” and “without significant increase in apoptosis”.
On the same counts, the results for `O=C1N(Cc2ccccc2Cl)c2ccccc2C12NN=C(c1ccccc1)S2` (stereo not drawn) [CFM-4, 1-(2-chlorobenzyl)-5′-phenyl-3′H-spiro[indoline-3,2′-[1,3,4]thiadiazol]-2-one] are “induced G2M cell cycle arrest” and “significantly elevated levels of apoptosis”.
